According to paper PMC7934871 (JCI Insight, 2021):

Legend:
[1] = tested on: HCT116 xenografted tumors
Procedure: For in vivo study, HCT116 cells were subcutaneously engrafted into NSG mice. After tumors reached an average size of approximately 5 mm, mice were locally treated with 1 mg/kg of FAM-labeled PS-unacet.-STAT3, PS-STAT3-K685R, or PS-acet.-STAT3 peptides (Anaspec) every day for 35 days. Twenty-four hours after the last treatment, tumors were harvested and analyzed by IF staining and 20× immersion objective on LSM 700 confocal microscope (ZEISS). Images were quantified using Zen software (ZEISS).
Supplemental Figure 5 (related to Figure 2). […]
(C to G) Subcutaneous HCT116 xenografts treated with FAM-labeled PS-unacet.-STAT3, PS-STAT3-K685R or PS-acet.-STAT3 peptides every other day at 1 mg/kg for 40 days.
(C) Retention of PS-acet.-STAT3 peptide was visualized with IF staining of tissue sections followed by confocal microscopy. n= 6 tumor tissues. Scales, 50 µm.
(E) The mRNA levels of CASP9, BIRC5 and BCL2L1 from the same tumor tissues described above were assessed by qRT-PCR. SD is shown. n= 3 independent experiments. One-way […]
(F) IF staining of cell proliferation (Ki-67) and vascularization (CD-31) markers upon peptide treatments in HCT116 tumor tissues. Scales; 50 and 100 µm (upper panels). The lower panels show the quantification of Ki-67 and CD-31. n= 6 tumor tissues.
Same protein samples were used from (D).
Aftabizadeh and Li et al., Figure S5

[2] = molecular target: T1, STAT3-exportin 7 interaction (Homo sapiens, UniProt Q9UIA9); experiment: Immunoprecipitation from HCT116 tumor homogenates, STAT3-exportin 7 interaction; type: binding; settings: homogenates of HCT116 tumors from treated mice, Western blotting
T1 construct: homogenates prepared from HCT116 colon tumors from mice treated with PO- and PS-acet.-STAT3 peptides; from tissue; host or cells: HCT116 xenograft tumours grown in NSG mice
T1 sequence (Q9UIA9 2-1087 limits assumed): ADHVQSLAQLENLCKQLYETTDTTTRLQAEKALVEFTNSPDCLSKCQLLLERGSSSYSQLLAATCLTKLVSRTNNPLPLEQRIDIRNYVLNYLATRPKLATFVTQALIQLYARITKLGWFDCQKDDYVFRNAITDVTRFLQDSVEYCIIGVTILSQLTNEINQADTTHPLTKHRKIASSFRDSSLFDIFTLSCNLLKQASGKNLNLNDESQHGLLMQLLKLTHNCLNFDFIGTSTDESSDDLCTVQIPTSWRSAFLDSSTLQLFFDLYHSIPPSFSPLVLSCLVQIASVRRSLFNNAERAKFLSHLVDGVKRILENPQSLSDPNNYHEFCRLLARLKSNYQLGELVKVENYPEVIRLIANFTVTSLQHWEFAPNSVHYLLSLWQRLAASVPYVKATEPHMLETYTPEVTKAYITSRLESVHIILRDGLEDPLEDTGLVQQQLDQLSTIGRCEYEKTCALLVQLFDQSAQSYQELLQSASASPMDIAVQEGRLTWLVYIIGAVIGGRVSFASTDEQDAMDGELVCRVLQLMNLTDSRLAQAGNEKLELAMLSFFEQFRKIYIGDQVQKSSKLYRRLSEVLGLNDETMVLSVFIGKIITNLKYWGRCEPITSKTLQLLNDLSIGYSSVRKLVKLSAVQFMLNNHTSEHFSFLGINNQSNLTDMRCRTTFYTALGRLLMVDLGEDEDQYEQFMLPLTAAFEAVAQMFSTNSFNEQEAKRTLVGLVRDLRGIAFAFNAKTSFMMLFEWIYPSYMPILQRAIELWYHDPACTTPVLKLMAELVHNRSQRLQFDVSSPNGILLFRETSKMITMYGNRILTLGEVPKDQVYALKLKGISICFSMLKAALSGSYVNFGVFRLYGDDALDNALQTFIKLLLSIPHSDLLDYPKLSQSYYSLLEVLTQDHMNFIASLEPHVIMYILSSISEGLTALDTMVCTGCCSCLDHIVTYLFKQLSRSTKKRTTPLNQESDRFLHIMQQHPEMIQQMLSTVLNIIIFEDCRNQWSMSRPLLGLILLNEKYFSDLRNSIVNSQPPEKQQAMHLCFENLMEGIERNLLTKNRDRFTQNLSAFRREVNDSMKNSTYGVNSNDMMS
Procedure: Whole cell lysates or tissue homogenates were prepared by using RIPA lysis buffer (50 mM Tris at pH 7.4, 150 mM NaCl, 1 mM EDTA, 0.5% NP-40, 1 mM NaF, 15% glycerol, and 20 mM β-glycerophosphate). A protease inhibitor cocktail (Mini Protease Inhibitor Cocktail; Roche) and a tyrosine phosphatase inhibitor, sodium orthovanadate (Na3VO4, 1 mM), were added freshly to the lysis buffer. Protein amounts were determined by BCA using a Thermo Fisher Scientific kit. Normalized protein amounts were subjected to an SDS-PAGE and transferred onto a nitrocellulose membrane for Western blotting. Proteins were visualized with a chemiluminescent detection kit (Pierce, Thermo Fisher Scientific). The protein levels for STAT1 (sc-346, E-23), STAT3 (sc-482, C-20), STAT5 (sc-74442, A-9), Crm1 (exportin 1) (sc-5595, H-300), CAS (exportin 2) (sc-271537, H-2), exportin 5 (sc-66885, H-300), and exportin 7 (sc-98639, H-82) were determined using antibodies from Santa Cruz Biotechnology Inc. Anti–exportin 3 (exportin T, 630622, LOS1 05-1525), anti–exportin 4 (3499-1), and anti–exportin 6 (11408-1-AP) were from MilliporeSigma, Epitomics, and Proteintech, respectively. […]
(B) PS-acet.-STAT3 peptide downregulates STAT3 phosphorylation, assessed by Western blotting using tumor homogenates prepared from tumors shown in A. […]

Substance: PDIPKEEAFGK685(Ac)YCRPESQEHPC-linker-T*C*C*A*T*G*A*G*C*T*T*C*C*T*G*A*T*G*C*T [PS-acet.-STAT3 peptide]
- tumor progression (proliferation marker Ki-67 and angiogenesis marker CD31) ([1]; HCT116 xenograft, 1 mg/kg local, IF staining): effectively inhibited
- STAT3 phosphorylation in tumors ([1]; HCT116 xenograft, 1 mg/kg local, immunoprecipitation and Western blotting): effectively inhibited
- transcriptional regulation (CASP9, BIRC5, BCL2L1 mRNA) in tumors ([1]; HCT116 xenograft, 1 mg/kg local, qRT-PCR): effectively inhibited
- acetylation of STAT3 in tumors ([1]; HCT116 xenograft, same samples as STAT3 phosphorylation): only moderately suppressed
- cellular retention of peptide in tumors in vivo ([1]; mouse, in vivo, 1 mg/kg): retained in tumors at significantly higher levels
- STAT3 binding to exportin 7 in tumor tissues [2]: blocked
- binding to exportin 7 in tumor tissues [2]: bound
